In PubChem BioAssay AID1918943 (Molecular Pharmacology Branch, DTP, NCI, 2023):
Several values for one entry are separate records, joined by “and”; a condition that tells them apart may be missing. Identical values can stand only once.

Test system: 855422-203-R-J1-PDC complex spheroid viability
Assay: Anticancer human tumor 855422-203-R-J1-PDC patient-derived bladder carcinoma cell line growth inhibition
Conditions: for viability, T/C: stronger effect = lower value; active = viability on the fitted dose curve at most 10% of control; inactive = the rest
Description: Multicellular complex tumor spheroid response to LSD1 Inhibitor Iadademstat in combination with a variety of drugs and investigational agents in selected tumor cell lines
The current study was undertaken to assess response to LSD1 inhibitors in combination with standard-of-care drugs and investigational agents in solid tumor complex spheroid models as well as in the K-562 leukemia. Complex spheroids include a stromal component modeled by human endothelial cells (HUVEC) and fibroblasts modeled by human mesenchymal stem cells (MSCs). The concentration ranges selected for each drug and investigational agent were based upon clinically achievable concentrations if the clinical Cmax of the agent was known.
Compounds. The drugs and investigational agents used in this study are listed on Table 1. All of the agents used, including staurosporine (NSC755774) and gemcitabine (NSC613327), were obtained from the Developmental Therapeutics Program, NCI. FDA-approved anticancer drugs are available from the NCI at http://dtp.nci.nih.gov/branches/dscb/oncology_drugset_explanation.html. Drugs and investigational agents were >95% pure by proton nuclear magnetic resonance (NMR) and liquid chromatography/mass spectrometry (LC/MS). Stock solutions were prepared at 400x in DMSO, stored at -70 degrees C, and diluted in fresh medium prior to their use. The final concentration of DMSO in cell culture wells never exceeded 0.25% (v/v). The FDA-approved anticancer drug set is available from the Developmental Therapeutics Program at https://dtp.cancer.gov/organization/dscb/obtaining/available_plates.htm. All drugs and investigational agents were tested over a range starting from a high concentration at or near the clinical Cmax and decreasing in half-log increments. If the clinical Cmax for an agent had not been determined, the highest concentration tested was 10 microM.
Cell Lines. The patient-derived cancer cell (PDC) lines: 292921-168-R-J2-PDC, K24384-001-R-PDC, and 521955-158-R2-J5-PDC pancreatic carcinomas, 556581-035-R-J1 ovarian carcinoma, 324938-238-R-J1-PDC, 855422-203-R-J1-PDC and 883617-216-R-J1-PDC urothelial bladder carcinomas, 743489-274-T-PDC renal cell carcinoma, 138582-R-J1 Merkel cell tumor, K60290-347-R-J1 and K57222-313-R-J1-PDC glioblastomas, 653999-131-R-J2-PDC, LG0703-F948-PDC, and 349418-098-R-PDC non-small cell lung carcinomas, 885512-296-R-J2-PDC, 171881-019-R-J1-PDC breast carcinomas and 186277-243-T-J2-PDC and 233499-124-R-J2-PDC colon carcinomas were obtained from the NCI Patient-Derived Models Repository (PDMR, https://pdmr.cancer.gov). The established cell lines NCI/ADR-RES (RRID:CVCL_14520 and OVCAR-5 (RRID:CVCL_1628) ovarian carcinomas, 786-O (RRID:CVCL_1051) and A498 (RRID:CVCL_A498) renal cell carcinoma, NCI-H211 (ATCC, cat. CRL-5824; RRID:CVCL_1529), NCI-H196 (ATCC, cat. CRL-5823, RRID:CVCL_1509), SW 1271 (ATCC, cat. CRL-2177, RRID:CVCL_1716) and NCI-H1876 (ATCC, cat. CRL-5902, RRID:CVCL_1503) small cell lung carcinomas, MDA-MB-231 (RRID:CVCL_0062) and MDA-MB-468 (RRID:CVCL_0419)breast carcinomas (10-12). Pooled donor human umbilical vein endothelial cells (HUVEC, Lonza, cat. CC-2519) and human mesenchymal stem cells (hMSC, Lonza, cat. PT-2501) were purchased from Lonza (Walkersville, MD).
Cell Culture. All cells were maintained in an incubator at 37 degrees C and 5% CO2 with 95% humidity. The PDC lines were cultured according to standard operating procedures established by the NCI PDMR (https://pdmr.cancer.gov). Briefly all PDCs were thawed and cultured in Matrigel-coated flasks prepared with a working solution of 1X Ham's F-12 nutrient mix, without supplementation (Invitrogen, Waltham, MA, cat. 11765054), 100 U/mL penicillin-streptomycin (Invitrogen, cat. 15140122), and 2.5% Matrigel (Corning Inc., Corning, NY, cat. 354248) for the first three passages. […]

[1] = curve of first compound, second compound 0.1 µM
[2] = curve of first compound, second compound 0.316 µM
[3] = curve of first compound, second compound 1 µM
[4] = curve of first compound, second compound 3.16 µM
[5] = curve of first compound, second compound 10 µM
[6] = second compound 0.1 µM, first compound 0.0316 µM
[7] = second compound 0.1 µM, first compound 0.1 µM
[8] = second compound 0.1 µM, first compound 0.316 µM
[9] = second compound 0.1 µM, first compound 1 µM
[10] = second compound 0.1 µM, first compound 3.16 µM
[11] = second compound 0.1 µM, first compound 10 µM
[12] = second compound 0.316 µM, first compound 0.0316 µM
[13] = second compound 0.316 µM, first compound 0.1 µM
[14] = second compound 0.316 µM, first compound 0.316 µM
[15] = second compound 0.316 µM, first compound 1 µM
[16] = second compound 0.316 µM, first compound 3.16 µM
[17] = second compound 0.316 µM, first compound 10 µM
[18] = second compound 1 µM, first compound 0.0316 µM
[19] = second compound 1 µM, first compound 0.1 µM
[20] = second compound 1 µM, first compound 0.316 µM
[21] = second compound 1 µM, first compound 1 µM
[22] = second compound 1 µM, first compound 3.16 µM
[23] = second compound 1 µM, first compound 10 µM
[24] = second compound 3.16 µM, first compound 0.0316 µM
[25] = second compound 3.16 µM, first compound 0.1 µM
[26] = second compound 3.16 µM, first compound 0.316 µM
[27] = second compound 3.16 µM, first compound 1 µM
[28] = second compound 3.16 µM, first compound 3.16 µM
[29] = second compound 3.16 µM, first compound 10 µM
[30] = second compound 10 µM, first compound 0.0316 µM
[31] = second compound 10 µM, first compound 0.1 µM
[32] = second compound 10 µM, first compound 0.316 µM
[33] = second compound 10 µM, first compound 1 µM
[34] = second compound 10 µM, first compound 3.16 µM
[35] = second compound 10 µM, first compound 10 µM
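Also: drug exposure lasted 7 days starting on day 3 after seeding.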
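For viability, T/C in this document: luminescence viability as percent of DMSO vehicle wells = 100%.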

CC1COCCN1c1cc(C2(S(C)(=N)=O)CC2)nc(-c2ccnc3[nH]ccc23)n1 (configuration not stated) + NC1CC1c1ccc(-c2cccc(O)c2)cc1
2490 nM: IC50 [3]
2630 nM: IC50 [2]
2290 nM: IC50 [4]
inactive: viability, T/C [6] 93.1% | viability, T/C [7] 93.2% | viability, T/C [8] 94.2% | viability, T/C [9] 74.6% | viability, T/C [10] 47.2% | viability, T/C [11] 39.7% | viability, T/C [12] 102% | viability, T/C [13] 91.2% | viability, T/C [14] 97.2% | viability, T/C [15] 79.9% | viability, T/C [16] 44.4% | viability, T/C [17] 43.5% | viability, T/C [18] 87.9% | viability, T/C [19] 84.4% | viability, T/C [20] 93.4% | viability, T/C [21] 75% | viability, T/C [22] 44.1% | viability, T/C [23] 40.5% | viability, T/C [24] 88.4% | viability, T/C [25] 93.4% | viability, T/C [26] 97.1% | viability, T/C [27] 77.2% | viability, T/C [28] 39.7% | viability, T/C [29] 38.9% | viability, T/C [30] 104% | viability, T/C [31] 87.2% | viability, T/C [32] 101% | viability, T/C [33] 75.5% | viability, T/C [34] 34.5% | viability, T/C [35] 37.7%
2740 nM: IC50 [1]
2110 nM: IC50 [5]

CC(C)CC(NC(=O)CNC(=O)c1cc(Cl)ccc1Cl)B1OC(=O)CC(CC(=O)O)(C(=O)O)O1 (configuration not stated)
inactive: viability, T/C (compound 0.000316 µM) 105% | viability, T/C (compound 0.001 µM) 76.8% and 109%
1.55 nM and 1.88 nM: IC50 (curve of compound)
active: viability, T/C (compound 0.00316 µM) 6.4% and 3.59% | viability, T/C (compound 0.01 µM) 1.38% and 0.62% | viability, T/C (compound 0.0316 µM) 0.11% and 0.19% | viability, T/C (compound 0.1 µM) 0.17% and 0.19%

O=C(c1cc(Cc2n[nH]c(=O)c3ccccc23)ccc1F)N1CCN(C(=O)C2CC2)CC1 + NC1CC1c1ccc(-c2cccc(O)c2)cc1
> 10000 nM: IC50 [1] | IC50 [2] | IC50 [3] | IC50 [4] | IC50 [5]
inactive: viability, T/C [6] 98.9% | viability, T/C [7] 99.2% | viability, T/C [8] 99.8% | viability, T/C [9] 98% | viability, T/C [10] 102% | viability, T/C [11] 84% | viability, T/C [12] 91.1% | viability, T/C [13] 87.4% | viability, T/C [14] 97.2% | viability, T/C [15] 98.4% | viability, T/C [16] 101% | viability, T/C [17] 81.4% | viability, T/C [18] 90.1% | viability, T/C [19] 87.7% | viability, T/C [20] 89.3% | viability, T/C [21] 95.5% | viability, T/C [22] 90.3% | viability, T/C [23] 80.8% | viability, T/C [24] 94.4% | viability, T/C [25] 89.7% | viability, T/C [26] 92.1% | viability, T/C [27] 91.3% | viability, T/C [28] 93.6% | viability, T/C [29] 70.1% | viability, T/C [30] 92.2% | viability, T/C [31] 89.4% | viability, T/C [32] 85.1% | viability, T/C [33] 89.6% | viability, T/C [34] 83.3% | viability, T/C [35] 55.5%
